Measured values reported in patent US9539260B2, “Dihydro-benzo-oxazine and dihydro-pyrido-oxazine derivatives” (Novartis AG, priority 2012, dated 2017).

Legend:
PI3K alpha = PI3K alpha (Homo sapiens (Human), UniProt P42336); assay: Enzymatic PI3K alpha isoform inhibition (lipid kinase activity, Kinase-Glo luminescence); assay type: biochemical; conditions: Enzymatic assay
In short: (§1)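 ATP-depletion format: 10 nM PI3K with 5 μg/mL phosphatidylinositol and 2 μM ATP, run to ~50% ATP consumption, then Kinase-Glo added and remaining ATP read by luminescence after 5 min. IC50 from 4-parameter logistic fit, typically over 8 concentrations 10–0.003 μM.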

PI3K delta = PI3K delta (Homo sapiens (Human), UniProt O00329); assay: Enzymatic PI3K delta isoform inhibition (lipid kinase activity, Kinase-Glo luminescence); assay type: biochemical; conditions: Enzymatic assay
PI3K delta, sequence (O00329 other isoform, or with tags, fused parts or gaps linker GGGGGG): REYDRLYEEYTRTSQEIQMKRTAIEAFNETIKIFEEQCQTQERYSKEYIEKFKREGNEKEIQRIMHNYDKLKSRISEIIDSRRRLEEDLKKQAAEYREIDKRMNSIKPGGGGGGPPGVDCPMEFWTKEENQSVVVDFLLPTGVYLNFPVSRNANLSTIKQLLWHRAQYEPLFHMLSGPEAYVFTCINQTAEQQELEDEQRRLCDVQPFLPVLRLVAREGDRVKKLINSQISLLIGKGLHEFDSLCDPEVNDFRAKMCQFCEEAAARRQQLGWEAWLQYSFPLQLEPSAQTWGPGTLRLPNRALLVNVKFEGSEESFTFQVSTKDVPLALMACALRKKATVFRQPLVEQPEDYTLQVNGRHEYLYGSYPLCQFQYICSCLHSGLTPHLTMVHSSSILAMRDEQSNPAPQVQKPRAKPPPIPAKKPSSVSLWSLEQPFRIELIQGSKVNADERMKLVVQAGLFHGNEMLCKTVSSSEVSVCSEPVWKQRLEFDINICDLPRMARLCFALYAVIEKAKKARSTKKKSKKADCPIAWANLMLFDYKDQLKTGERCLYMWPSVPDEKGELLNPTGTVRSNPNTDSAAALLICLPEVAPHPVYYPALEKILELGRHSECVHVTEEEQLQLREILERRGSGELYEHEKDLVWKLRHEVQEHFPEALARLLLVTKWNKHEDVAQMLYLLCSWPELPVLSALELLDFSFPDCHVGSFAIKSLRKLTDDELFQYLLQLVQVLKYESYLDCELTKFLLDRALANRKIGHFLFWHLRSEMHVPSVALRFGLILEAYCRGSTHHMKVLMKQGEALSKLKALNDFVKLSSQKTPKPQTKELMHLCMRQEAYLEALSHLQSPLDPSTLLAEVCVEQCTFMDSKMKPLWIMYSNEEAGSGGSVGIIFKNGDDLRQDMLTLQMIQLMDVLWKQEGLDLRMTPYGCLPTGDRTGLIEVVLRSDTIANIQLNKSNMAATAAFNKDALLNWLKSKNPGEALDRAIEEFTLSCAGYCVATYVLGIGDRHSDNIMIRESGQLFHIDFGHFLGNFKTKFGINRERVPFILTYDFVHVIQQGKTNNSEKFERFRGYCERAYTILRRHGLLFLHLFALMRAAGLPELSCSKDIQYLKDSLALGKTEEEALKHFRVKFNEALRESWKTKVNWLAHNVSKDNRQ
In short: as §1

PI3K alpha, sequence (P42336 other isoform, or with tags, fused parts or gaps): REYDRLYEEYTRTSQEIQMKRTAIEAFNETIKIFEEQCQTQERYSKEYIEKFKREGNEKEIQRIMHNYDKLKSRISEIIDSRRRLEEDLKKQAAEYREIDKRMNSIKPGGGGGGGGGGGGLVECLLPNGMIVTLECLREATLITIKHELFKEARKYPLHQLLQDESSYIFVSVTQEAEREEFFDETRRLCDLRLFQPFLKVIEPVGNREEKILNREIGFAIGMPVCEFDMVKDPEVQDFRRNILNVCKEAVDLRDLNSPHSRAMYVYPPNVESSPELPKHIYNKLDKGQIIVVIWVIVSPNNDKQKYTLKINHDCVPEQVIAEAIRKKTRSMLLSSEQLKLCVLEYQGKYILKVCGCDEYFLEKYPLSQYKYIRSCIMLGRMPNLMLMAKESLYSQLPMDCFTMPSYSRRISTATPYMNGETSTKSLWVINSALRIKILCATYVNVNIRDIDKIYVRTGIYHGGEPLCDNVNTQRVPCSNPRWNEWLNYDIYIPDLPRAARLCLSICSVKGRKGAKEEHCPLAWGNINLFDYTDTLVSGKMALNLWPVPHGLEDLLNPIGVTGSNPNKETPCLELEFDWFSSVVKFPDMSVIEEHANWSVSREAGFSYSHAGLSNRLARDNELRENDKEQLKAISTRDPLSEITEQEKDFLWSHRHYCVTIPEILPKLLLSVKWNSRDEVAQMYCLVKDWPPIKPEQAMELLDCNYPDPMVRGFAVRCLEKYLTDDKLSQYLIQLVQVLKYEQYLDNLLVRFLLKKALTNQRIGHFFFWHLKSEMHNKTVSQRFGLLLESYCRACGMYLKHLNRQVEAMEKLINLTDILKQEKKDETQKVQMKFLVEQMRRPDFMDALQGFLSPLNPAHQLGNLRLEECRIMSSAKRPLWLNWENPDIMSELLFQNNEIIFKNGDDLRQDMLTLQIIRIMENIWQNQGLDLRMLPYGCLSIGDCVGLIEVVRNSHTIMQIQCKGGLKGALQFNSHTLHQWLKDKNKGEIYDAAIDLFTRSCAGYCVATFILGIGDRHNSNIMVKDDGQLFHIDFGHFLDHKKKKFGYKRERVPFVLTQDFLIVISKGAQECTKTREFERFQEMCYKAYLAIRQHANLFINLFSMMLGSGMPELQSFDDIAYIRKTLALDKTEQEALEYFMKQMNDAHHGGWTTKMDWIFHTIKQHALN

**Q.** How did the IC50 (PI3K alpha) turn out when `COc1ncc(N2CCOc3ccc(O[C@H]4CCN(C(=O)c5cocn5)C4)cc32)cc1F` [Example B100, {(S)-3-[4-(5-Fluoro-6-methoxy-pyridin-3-yl)-3,4-dihydro-2H-benzo[1,4]oxazin-6-yloxy]-pyrrolidin-1-yl}-oxazol-4-yl-methanone] was run?
**A.** 567 nM

**Q.** And the IC50 (PI3K delta)?
**A.** 14 nM

**Q.** For `COc1ncc(N2CCOc3ccc(O[C@H]4CCN(C(=O)C5CCS(=O)(=O)C5)C4)cc32)cc1F` (stereo partly drawn) [Example B101, (1,1-Dioxo-tetrahydro-1lambda*6*-thiophen-3-yl)-{(S)-3-[4-(5-fluoro-6-methoxy-pyridin-3-yl)-3,4-dihydro-2H-benzo[1,4]oxazin-6-yloxy]-pyrrolidin-1-yl}-methanone], which IC50 (PI3K alpha) is on record?
**A.** 471 nM

**Q.** What about the IC50 (PI3K delta) of the same compound?
**A.** 15 nM

**Q.** How did the IC50 (PI3K alpha) turn out when `COc1ncc(N2CCOc3ccc(O[C@H]4CCN(C(=O)c5cnco5)C4)cc32)cc1F` [Example B103, {(S)-3-[4-(5-Fluoro-6-methoxy-pyridin-3-yl)-3,4-dihydro-2H-benzo[1,4]oxazin-6-yloxy]-pyrrolidin-1-yl}-oxazol-5-yl-methanone] was run?
**A.** 241 nM

**Q.** And the IC50 (PI3K delta)?
**A.** 46 nM

**Q.** With `COc1ncc(N2CCOc3ccc(O[C@H]4CCN(C(=O)c5cncnc5)C4)cc32)cc1F` [Example B104, {(S)-3-[4-(5-Fluoro-6-methoxy-pyridin-3-yl)-3,4-dihydro-2H-benzo[1,4]oxazin-6-yloxy]-pyrrolidin-1-yl}-pyrimidin-5-yl-methanone] as the compound, how does the IC50 (PI3K alpha) read?
**A.** 1370 nM

**Q.** What about the IC50 (PI3K delta) of the same compound?
**A.** 162 nM

**Q.** What does the source list for `COc1ncc(N2CCOc3ccc(O[C@H]4CCN(C(=O)C5CCS(=O)(=O)C5)C4)cc32)cc1Cl` (stereo partly drawn) [Example B105, {(S)-3-[4-(5-Chloro-6-methoxy-pyridin-3-yl)-3,4-dihydro-2H-benzo[1,4]oxazin-6-yloxy]-pyrrolidin-1-yl}-(1,1-dioxo-tetrahydro-1lambda*6*-thiophen-3-yl)-methanone]?
**A.** IC50 (PI3K alpha): 762 nM; IC50 (PI3K delta): 20 nM

**Q.** How did the IC50 (PI3K alpha) turn out when `COc1ncc(N2CCOc3ccc(O[C@H]4CCN(C(=O)CCS(C)(=O)=O)C4)cc32)cc1Cl` [Example B106, 1-{(S)-3-[4-(5-Chloro-6-methoxy-pyridin-3-yl)-3,4-dihydro-2H-benzo[1,4]oxazin-6-yloxy]-pyrrolidin-1-yl}-3-methanesulfonyl-propan-1-one] was run?
**A.** 247 nM

**Q.** And the IC50 (PI3K delta)?
**A.** 17 nM

**Q.** With `COc1ncc(N2CCOc3ccc(O[C@H]4CCN(C(=O)CCO)C4)cc32)cc1Cl` [Example B107, 1-{(S)-3-[4-(5-Chloro-6-methoxy-pyridin-3-yl)-3,4-dihydro-2H-benzo[1,4]oxazin-6-yloxy]-pyrrolidin-1-yl}-3-hydroxy-propan-1-one] as the compound, how does the IC50 (PI3K alpha) read?
**A.** 239 nM

**Q.** And the IC50 (PI3K delta)?
**A.** 4 nM

**Q.** Which IC50 (PI3K alpha) does the source give for `COc1ncc(N2CCOc3ccc(O[C@H]4CCN(C(=O)c5cnco5)C4)cc32)cc1Cl` [Example B108, {(S)-3-[4-(5-Chloro-6-methoxy-pyridin-3-yl)-3,4-dihydro-2H-benzo[1,4]oxazin-6-yloxy]-pyrrolidin-1-yl}-oxazol-5-yl-methanone] here?
**A.** 94 nM

**Q.** And the IC50 (PI3K delta)?
**A.** < 3 nM

**Q.** What does the source list for `COc1ncc(N2CCOc3ccc(O[C@H]4CCN(C(=O)CC#N)C4)cc32)cc1Cl` [Example B109, 3-{(S)-3-[4-(5-Chloro-6-methoxy-pyridin-3-yl)-3,4-dihydro-2H-benzo[1,4]oxazin-6-yloxy]-pyrrolidin-1-yl}-3-oxo-propionitrile]?
**A.** IC50 (PI3K alpha): 118 nM; IC50 (PI3K delta): < 3 nM

**Q.** With `COc1ncc(N2CCOc3ccc(O[C@H]4CCN(C(=O)CS(C)(=O)=O)C4)cc32)cc1Cl` [Example B110, 1-{(S)-3-[4-(5-Chloro-6-methoxy-pyridin-3-yl)-3,4-dihydro-2H-benzo[1,4]oxazin-6-yloxy]-pyrrolidin-1-yl}-2-methanesulfonyl-ethanone] as the compound, how does the IC50 (PI3K alpha) read?
**A.** 148 nM

**Q.** What about the IC50 (PI3K delta) of the same compound?
**A.** 3 nM

**Q.** Which results are given for `COc1ncc(N2CCOc3ccc(O[C@H]4CCN(C(=O)CS(C)(=O)=O)C4)cc32)cc1F` [Example B111, 1-{(S)-3-[4-(5-Fluoro-6-methoxy-pyridin-3-yl)-3,4-dihydro-2H-benzo[1,4]oxazin-6-yloxy]-pyrrolidin-1-yl}-2-methanesulfonyl-ethanone]?
**A.** IC50 (PI3K alpha): 685 nM; IC50 (PI3K delta): 60 nM

**Q.** Which IC50 (PI3K alpha) does the source give for `COc1ncc(N2CCOc3ccc(O[C@H]4CCN(C(=O)CCS(C)(=O)=O)C4)cc32)cc1F` [Example B112, 1-{(S)-3-[4-(5-Fluoro-6-methoxy-pyridin-3-yl)-3,4-dihydro-2H-benzo[1,4]oxazin-6-yloxy]-pyrrolidin-1-yl}-3-methanesulfonyl-propan-1-one] here?
**A.** 380 nM

**Q.** And the IC50 (PI3K delta)?
**A.** 26 nM

**Q.** Which results are given for `COc1ncc(N2CCOc3ccc(O[C@H]4CCN(C(=O)CCO)C4)cc32)cc1F` [Example B113, 1-{(S)-3-[4-(5-Fluoro-6-methoxy-pyridin-3-yl)-3,4-dihydro-2H-benzo[1,4]oxazin-6-yloxy]-pyrrolidin-1-yl}-3-hydroxy-propan-1-one]?
**A.** IC50 (PI3K alpha): 2730 nM; IC50 (PI3K delta): 109 nM

**Q.** What does the source list for `COCCC(=O)N1CC[C@H](Oc2ccc3c(c2)N(c2cnc(OC)c(F)c2)CCO3)C1` [Example B114, 1-{(S)-3-[4-(5-Fluoro-6-methoxy-pyridin-3-yl)-3,4-dihydro-2H-benzo[1,4]oxazin-6-yloxy]-pyrrolidin-1-yl}-3-methoxy-propan-1-one]?
**A.** IC50 (PI3K alpha): 1440 nM; IC50 (PI3K delta): 71 nM

**Q.** Which results are given for `COc1ncc(N2CCOc3ccc(O[C@H]4CCN(C(=O)CC#N)C4)cc32)cc1F` [Example B116, 3-{(S)-3-[4-(5-Fluoro-6-methoxy-pyridin-3-yl)-3,4-dihydro-2H-benzo[1,4]oxazin-6-yloxy]-pyrrolidin-1-yl}-3-oxo-propionitrile]?
**A.** IC50 (PI3K alpha): 304 nM; IC50 (PI3K delta): 22 nM

**Q.** For `COc1ncc(N2CCOc3ccc(O[C@H]4CCN(C(=O)[C@H]5CC[C@H](O)CC5)C4)cc32)cc1F` [Example B117, {(S)-3-[4-(5-Fluoro-6-methoxy-pyridin-3-yl)-3,4-dihydro-2H-benzo[1,4]oxazin-6-yloxy]-pyrrolidin-1-yl}-(4-hydroxy-cyclohexyl)-methanone], which IC50 (PI3K alpha) is on record?
**A.** 1210 nM

**Q.** And the IC50 (PI3K delta)?
**A.** 8 nM

**Q.** What does the source list for `COc1ncc(N2CCOc3ccc(O[C@H]4CCN(C(=O)[C@H]5CC[C@@H](O)CC5)C4)cc32)cc1F` [Example B118, {(S)-3-[4-(5-Fluoro-6-methoxy-pyridin-3-yl)-3,4-dihydro-2H-benzo[1,4]oxazin-6-yloxy]-pyrrolidin-1-yl}-(4-hydroxy-cyclohexyl)-methanone]?
**A.** IC50 (PI3K alpha): 498 nM; IC50 (PI3K delta): 10 nM

**Q.** Which IC50 (PI3K alpha) does the source give for `COc1ncc(N2CCOc3ccc(O[C@H]4CCN(C(=O)C5CCS(=O)(=O)CC5)C4)cc32)cc1C(F)F` [Example B119, {(S)-3-[4-(5-Difluoromethyl-6-methoxy-pyridin-3-yl)-3,4-dihydro-2H-benzo[1,4]oxazin-6-yloxy]-pyrrolidin-1-yl}-(1,1-dioxo-hexahydro-6-thiopyran-4-yl)-methanone] here?
**A.** 124 nM

**Q.** What about the IC50 (PI3K delta) of the same compound?
**A.** 6 nM

**Q.** With `COc1ncc(N2CCOc3ccc(O[C@H]4CCN(C(=O)C5CCOCC5)C4)cc32)cc1C(F)F` [Example B120, {(S)-3-[4-(5-Difluoromethyl-6-methoxy-pyridin-3-yl)-3,4-dihydro-2H-benzo[1,4]oxazin-6-yloxy]-pyrrolidin-1-yl}-(tetrahydro-pyran-4-yl)-methanone] as the compound, how does the IC50 (PI3K alpha) read?
**A.** 88 nM

**Q.** What about the IC50 (PI3K delta) of the same compound?
**A.** 6 nM

**Q.** What does the source list for `CCC(=O)N1CC[C@H](Oc2ccc3c(c2)N(c2ccc([S+]([O-])CC)nc2)CCO3)C1` (stereo partly drawn) [Example B121, 1-{(S)-3-[4-(6-Ethanesulfinyl-pyridin-3-yl)-3,4-dihydro-2H-benzo[1,4]oxazin-6-yloxy]-pyrrolidin-1-yl}-propan-1-one]?
**A.** IC50 (PI3K alpha): 3360 nM; IC50 (PI3K delta): 75 nM

**Q.** With `COc1ncc(N2CCOc3ccc(O[C@H]4CCN(C(=O)[C@@H]5CCN(C(C)=O)C5)C4)cc32)cc1C` [Example B122, 1-((R)-3-{(S)-3-[4-(6-Methoxy-5-methyl-pyridin-3-yl)-3,4-dihydro-2H-benzo[1,4]oxazin-6-yloxy]-pyrrolidine-1-carbonyl}-pyrrolidin-1-yl)-ethanone] as the compound, how does the IC50 (PI3K alpha) read?
**A.** 425 nM

**Q.** And the IC50 (PI3K delta)?
**A.** 24 nM

**Q.** Which results are given for `COc1ncc(N2CCOc3ccc(O[C@@H]4CCN(C(=O)C5CCOCC5)C4)cc32)cc1C#N` [Example C2, 2-Methoxy-5-{6-[(R)-1-(tetrahydro-pyran-4-carbonyl)-pyrrolidin-3-yloxy]-2,3-dihydro-benzo[1,4]oxazin-4-yl}-nicotinonitrile]?
**A.** IC50 (PI3K alpha): 1220 nM; IC50 (PI3K delta): 243 nM

**Q.** For `CCC(=O)N1CC[C@@H](Oc2ccc3c(c2)N(c2ccc(OC)nc2)CCO3)C1` [Example C3, 1-{(R)-3-[4-(6-Methoxy-pyridin-3-yl)-3,4-dihydro-2H-benzo[1,4]oxazin-6-yloxy]-pyrrolidin-1-yl}-propan-1-one], which IC50 (PI3K alpha) is on record?
**A.** 3380 nM

**Q.** What about the IC50 (PI3K delta) of the same compound?
**A.** 1210 nM

**Q.** Which results are given for `CCC(=O)N1CC[C@H](Oc2ccc3c(c2)N(c2ccc(OC)nc2)CCO3)C1` [Example C4, 1-{(S)-3-[4-(6-Methoxy-pyridin-3-yl)-3,4-dihydro-2H-benzo[1,4]oxazin-6-yloxy]-pyrrolidin-1-yl}-propan-1-one]?
**A.** IC50 (PI3K alpha): 3000 nM; IC50 (PI3K delta): 28 nM

**Q.** Which IC50 (PI3K alpha) does the source give for `COc1ncc(N2c3cc(O[C@H]4CCN(C(=O)C5CCOCC5)C4)ccc3OCC2C)cc1C#N` (stereo partly drawn) [Example C5, 2-Methoxy-5-{3-methyl-6-[(S)-1-(tetrahydro-pyran-4-carbonyl)-pyrrolidin-3-yloxy]-2,3-dihydro-benzo[1,4]oxazin-4-yl}-nicotinonitrile] here?
**A.** 5510 nM

**Q.** What about the IC50 (PI3K delta) of the same compound?
**A.** 95 nM

**Q.** Which results are given for `COc1ncc(N2c3cc(O[C@H]4CCN(C(=O)C5CCOCC5)C4)ccc3OCC2C)cc1C#N` (stereo partly drawn) [Example C6, 2-Methoxy-5-{3-methyl-6-[(S)-1-(tetrahydro-pyran-4-carbonyl)-pyrrolidin-3-yloxy]-2,3-dihydro-benzo[1,4]oxazin-4-yl}-nicotinonitrile]?
**A.** IC50 (PI3K alpha): 4260 nM; IC50 (PI3K delta): 181 nM

**Q.** What does the source list for `COc1ncc(N2CCOc3ccc(O[C@H]4CCN(C(=O)c5ccnn5C)C4)cc32)cc1C#N` [Example C8, 2-Methoxy-5-{6-[(S)-1-(2-methyl-2H-pyrazole-3-carbonyl)-pyrrolidin-3-yloxy]-2,3-dihydro-enzo[1,4]oxazin-4-yl}-nicotinonitrile]?
**A.** IC50 (PI3K alpha): 374 nM; IC50 (PI3K delta): 13 nM

**Q.** Which results are given for `COc1ncc(N2CCOc3ccc(O[C@H]4CCN(C(=O)c5ccno5)C4)cc32)cc1C#N` [Example C9, 5-{6-[(S)-1-(Isoxazole-5-carbonyl)-pyrrolidin-3-yloxy]-2,3-dihydro-benzo[1,4]oxazin-4-yl}-2-methoxy-nicotinonitrile]?
**A.** IC50 (PI3K alpha): 185 nM; IC50 (PI3K delta): 6 nM
